Experimental data published in patent publication US5330741A, “Long-wavelength water soluble chlorin photosensitizers useful for photodynamic therapy and diagnosis of tumors” (The Regents of the University of California, priority 1992, dated 1994).
Where two headings read alike, the source gives them in different places.

Columns and labels:
cell killing = details: cited from earlier work; for activity in photodynamic therapy: in vitro conditions; for photosensitized cell killing: low intensity of red light
Stability of compounds = format: physicochemical; details: decomposes to purpurin-18 methyl ester (3) and polar baseline material
[1] = Long wavelength molar extinction coefficient; format: physicochemical; details: in methanol, at 660 nm
Procedure: Lysyl-chlorin-p6 was prepared by treatment of purpurin 18 methyl ester (obtained from chlorophyll-a) with lysine in a mixture of dichloromethane, pyridine, and water. It was purified using a Waters Associate's C18 SepPak cartridge. Reversed phase analytical high-performance liquid chromatography (HPLC) indicated the product to consist of 60% lysyl chlorin-p6 and 40% chlorin-p6 based on equal absorbance at 403 nm. This mixture is termed "LCP". The long wavelength molar extinction coefficient of lysyl-chlorin-p6 in methanol was 39,600 at 660 nm.

Water solubility = format: physicochemical
tumor = details: cited from earlier work
normal skin = details: comparable drug and light doses; cited from earlier work

C=Cc1c(C)c2cc3nc(c4c5[nH]c(cc6nc(cc1[nH]2)C(C)=C6CC)c(C)c5C(=O)OC4=O)[C@@H](CCC(=O)O)[C@@H]3C [Purpurin-18]
activity in photodynamic therapy (cell killing): active in photodynamic therapy | photosensitized cell killing (cell killing): potent photosensitizers which promote cell killing

C=Cc1c(C)c2cc3nc(c(C(=O)O)c4[nH]c(cc5nc(cc1[nH]2)C(C)=C5CC)c(C)c4C(=O)NCCCC)[C@@H](CCC(=O)OC)[C@@H]3C [(VII), chlorin-p6-6-N-butylamide-7-methyl ester]
stability (Stability of compounds): not very stable and readily decomposed

C=Cc1c(C)c2cc3nc(c(C(=O)O)c4[nH]c(cc5nc(cc1[nH]2)C(C)=C5CC)c(C)c4C(=O)O)[C@@H](CCC(=O)O)[C@@H]3C [chlorin-p6]
activity in photodynamic therapy (cell killing): active in photodynamic therapy | photosensitized cell killing (cell killing): potent photosensitizers which promote cell killing

C=Cc1c(C)c2cc3nc(c(C(=O)O)c4[nH]c(cc5nc(cc1[nH]2)C(C)=C5CC)c(C)c4C(=O)NCCCCC(N)C(=O)O)[C@@H](CCC(=O)OC)[C@@H]3C (stereo partly shown) [(II), chlorin-p6 6-N^ε -lysylamide-7-methyl ester]
long wavelength molar extinction coefficient [1]: 39,600 | solubility in water (Water solubility): well soluble in water

C=Cc1c(C)c2cc3nc(c(CC(=O)N[C@@H](CC(=O)[O-])C(=O)[O-])c4[nH]c(cc5nc(cc1[nH]2)C(C)=C5CC)c(C)c4C(=O)[O-])[C@@H](CCC(=O)[O-])[C@@H]3C.[Na+].[Na+].[Na+].[Na+] [MACE, mono-L-aspartyl-chlorin e6]
tumor cures (tumor; 24 hours between drug administration and light): ineffective at inducing tumor cures | tumor cures (tumor; administered 4-6 hours prior to light exposure): PDT induced tumor cures were obtained | level of PDT induced normal skin damage vs HpD (normal skin): significantly lesser
